Where two headings read alike, the source gives them in different places.
Tests used:
[1] = tested on: NCI-H441 (KRAS^G12V/WT, NSCLC) xenograft; test: Subcutaneous xenograft antitumor activity; format: in vivo, mouse; settings: for Tumor Volume: NCI-H441 Tumor Volume Data, dose every 24 h
Method: (§1) To generate subcutaneous CDX, each mouse was inoculated at the right flank with tumor cells (2 × 10^6 − 1 × 10^7) in 100 to 200 µL of media/PBS Supplemented with Matrigel. Treatments were initiated when average tumor volume reached 130 to 200 mm^3 for tumor growth evaluation and 350 to 650 mm^3 for single-dose pharmacokinetic/pharmacodynamic (PK/PD). Tumor diameter was measured in two dimensions using a digital caliper, and the tumor volume in mm^3 was calculated using the formula: Volume = ((width)^2 × length)/2. Mice in the study were weighed and tumors were measured twice weekly.
(§2) Tumor-bearing animals were randomized and assigned into groups (n = 1–10/group). The vehicle at 10 mL/kg or RMC-6236 at indicated doses was administered via oral gavage daily, and animals were treated for 28 days, or up to 90 days if PFS was being assessed. […] For single-dose PKPD study, mice were randomized and assigned into groups (n = 3/dose/time point). A single dose of RMC-6236 was administered orally at either 3, 10, or 25 mg/kg. Blood and tissues, including the tumor, brain, colon, ear skin, and muscle, were harvested at indicated time points. Whole blood was collected in K2EDTA Microtainer tubes, incubated for 5 minutes, and snap-frozen in liquid nitrogen. The tissue was either fixed in 10% formalin or snap-frozen in liquid nitrogen for further analysis.
(§3) In tumor volume plots, the average tumor volume of each group was plotted over the course after implantation (except for PDX models, where the x-axis started on the first day of treatment). Control and RMC-6236 groups were compared by two-way repeated-measures ANOVA on the last measurement day of the control group. Percentage change in body weight for each animal on a given day was determined as [(body weight on test article administration end date/body weight on test article administration start date) −1] × 100. The percentage mean tumor volume change from baseline was graphed in the waterfall plots. The mRECIST score was determined based on % mean tumor volume change, mCR is more than 80% regression, mPR is between 30% and 80% regression, mSD is between 30% growth and 30% regression, mPD is more than 30% growth. Progression is defined as tumor volume doubling from baseline and represented with Kaplan–Meier plots. Log-rank test was used to compare vehicle control with treatment groups. Cox Proportional Hazards models were used to estimate hazard ratios between vehicle control and treatment groups. Tumor relapse was defined here as models that were considered mPR or mCR at the response calling date and then rebounded from mean tumor volume regressions to either stable disease or progression when dosed long-term (more than 60 days).

[2] = tested on: HPAC (KRAS^G12D/WT, PDAC) xenograft; test: Subcutaneous xenograft antitumor activity; format: in vivo, mouse; settings: HPAC (25 mg/kg)
Method: as §1, §2, §3

[3] = tested on: DUSP6 mRNA in NCI-H441 xenograft tumors; test: Mouse PK/PD modeling
Excerpt: (§4) Akaike information criterion values were used to discriminate between model structure and fit. Individual data points (n = 3/time point) were averaged from sparsely sampled PK/PD data to create mean profiles, which were used for subsequent modeling. A graphical representation of the model and all parameter estimates and equations can be found in the Supplementary Information (Supplementary Fig. S6; Supplementary Table S8l Supplementary Method).
(§5) For PK modeling, whole blood PK data from single or repeat dose administration of 25 or 40 mg/kg RMC-6236 to NCI-H441 xenograft tumor-bearing mice were used (Supplementary Table S9). RMC-6236 blood PK was best described using a one-compartment model with first-order absorption and elimination. Because intravenous data were not included in the modeling, the model was parameterized in terms of apparent clearance (CL/F) and volume of distribution (V/F), where F is the oral bioavailability.
(§6) The mouse whole-blood PK model was expanded to include tumor PK/PD by incorporating blood–plasma partitioning, plasma protein binding, and tumor partitioning and PD parameters. PK/PD modeling was conducted using data from NCI-H441 xenograft tumor-bearing mice due to greater data availability. RMC-6236 tumor concentrations and DUSP6 mRNA expression were measured in tumor tissue after single or repeat dose administration of 25 or 40 mg/kg to NCI-H441 xenograft tumor-bearing mice (Supplementary Table S9). […] The PD response was modeled using DUSP6 biomarker data from NCI-H441 mouse xenograft studies. […] As such, an indirect response model was used to describe the suppression of DUSP6 expression, assuming zero-order production, first-order degradation, and maximal inhibition fixed at 100%.
(§7) Tumor PK and PD were added to the model by incorporating blood-plasma partitioning, plasma protein binding, and tumor partitioning and PD parameters.
(§8) The unbound plasma concentrations were used as a driving function to predict total tumor concentrations. Separate tumor partitioning rates were fit to match the observed extended half-life of RMC-6236. The tumor partitioning rates were manually adjusted to best fit repeat dose data as this was assumed to be more relevant for clinical predictions. It is important to note that the kinetic rate constant for removal of drug from the tumor incorporates a non-identifiable tumor fraction unbound variable, since only unbound drug should partition across cell membranes.

Mouse PK/PD modeling = settings: mouse, whole blood, oral
Excerpt: as §4, §5, §6, §7, §8

[4] = Mouse PKPD Model Parameters, Manually fit to repeat dose data
[5] = Mouse PKPD Model Parameters, NCI-H441 #8 Single and Repeat Dose fit simultaneously
[6] = Mouse PKPD Model Parameters, apparent value, NCI-H441 #8 Single and Repeat Dose fit simultaneously
[7] = NCI-H441 PKPD model, Manually Fit

## CCn1c(-c2cc(N3CCN(C)CC3)cnc2[C@H](C)OC)c2c3cc(ccc31)-c1csc(n1)C[C@H](NC(=O)[C@H]1C[C@@H]1C)C(=O)N1CCC[C@H](N1)C(=O)OCC(C)(C)C2 [RMC-6236]
[1]; NCI-H441 (25 mg/kg)
  Anti-Tumor Activity (% regression): 88.0%
[1]; NCI-H441, 10 mg/kg daily, 4 weeks
  mean tumor regression: 29%
[1]; 1mg/kg, 0 h (baseline)
  Tumor Volume: 155.297 mm^3
[1]; 1mg/kg, 72 h
  Tumor Volume: 211.748 mm^3
[1]; 1mg/kg, 240 h
  Tumor Volume: 488.795 mm^3
[1]; 1mg/kg, 336 h
  Tumor Volume: 652.416 mm^3
[1]; 1mg/kg, 408 h
  Tumor Volume: 795.041 mm^3
[1]; 1mg/kg, 504 h
  Tumor Volume: 1190.95 mm^3
[1]; 1mg/kg, 576 h
  Tumor Volume: 1534.52 mm^3
[1]; 1mg/kg, […]
  Tumor Volume: 331.176 mm^3
[1]; 5mg/kg, 0 h (baseline)
  Tumor Volume: 155.278 mm^3
[1]; 5mg/kg, 72 h
  Tumor Volume: 132.554 mm^3
[1]; 5mg/kg, 240 h
  Tumor Volume: 165.633 mm^3
[1]; 5mg/kg, 336 h
  Tumor Volume: 208.828 mm^3
[1]; 5mg/kg, 408 h
  Tumor Volume: 274.14 mm^3
[1]; 5mg/kg, 504 h
  Tumor Volume: 284.303 mm^3
[1]; 5mg/kg, 576 h
  Tumor Volume: 324.789 mm^3
[1]; 5mg/kg, 672 h
  Tumor Volume: 374.96 mm^3
[1]; 5mg/kg, […]
  Tumor Volume: 115.114 mm^3
[1]; 10mg/kg, 0 h (baseline)
  Tumor Volume: 155.355 mm^3
[1]; 10mg/kg, 72 h
  Tumor Volume: 120.95 mm^3
[1]; 10mg/kg, 240 h
  Tumor Volume: 80.5583 mm^3
[1]; 10mg/kg, 336 h
  Tumor Volume: 79.7939 mm^3
[1]; 10mg/kg, 408 h
  Tumor Volume: 102.218 mm^3
[1]; 10mg/kg, 504 h
  Tumor Volume: 74.6022 mm^3
[1]; 10mg/kg, 576 h
  Tumor Volume: 87.8761 mm^3
[1]; 10mg/kg, 672 h
  Tumor Volume: 105.875 mm^3
[1]; 10mg/kg, […]
  Tumor Volume: 91.6508 mm^3
[1]; 25mg/kg, 0 h (baseline)
  Tumor Volume: 155.304 mm^3
[1]; 25mg/kg, 72 h
  Tumor Volume: 113.104 mm^3
[1]; 25mg/kg, 240 h
  Tumor Volume: 58.639 mm^3
[1]; 25mg/kg, 336 h
  Tumor Volume: 46.9253 mm^3
[1]; 25mg/kg, 408 h
  Tumor Volume: 36.776 mm^3
[1]; 25mg/kg, 504 h
  Tumor Volume: 29.9204 mm^3
[1]; 25mg/kg, 576 h
  Tumor Volume: 27.7701 mm^3
[1]; 25mg/kg, 672 h
  Tumor Volume: 19.397 mm^3
[1]; 25mg/kg, […]
  Tumor Volume: 78.2002 mm^3
[2]
  Anti-Tumor Activity (% regression): 93%
[3]; Mouse PKPD Model Parameters, Fixed
  Imax: 1 unitless
[3]; [4]
  Kbt: 115 h⁻¹
  Ktb: 0.1 h⁻¹
[3]; [5]
  Ka: 0.6483 h⁻¹
  Kout: 2.386 h⁻¹
[3]; Mouse PKPD Model Parameters, NCI-H441 #8 Single and Repeat Dose fit simultaneously, read-out: IC50
  IC50: 42.3 nM
[3]; [6]
  V/F: 10.1992 L
[3]; NCI-H441 PKPD model, %CV 7.43
  Kout: 2.39 h⁻¹
[3]; NCI-H441 PKPD model, %CV 14.60
  V/F: 10.20 L
[3]; NCI-H441 PKPD model, %CV 25.69
  Ka: 0.65 h⁻¹
[3]; NCI-H441 PKPD model, %CV 60.16, read-out: IC50 (DUSP6 indirect response model)
  IC50: 42.3 nM
[3]; [7]
  Kpt: 115 h⁻¹
  Ktb: 0.1 h⁻¹
Mouse PK/PD modeling; [6]
  CL/F: 48.5 mL/min/kg
Mouse PK/PD modeling; NCI-H441 PKPD model, %CV 9.90
  CL/F: 48.5 mL/min/kg
